# Laboratory results published in patent US9657073B2, “Inhibitors of Bcl-2” (Case Western Reserve University, priority 2010, dated 2017).
# Columns and labels:
# Jurkat cells = assay: Single cell digital imaging of intracellular Ca2+ (Fura-2); format: cell-based, human; settings: 10 μM peptide, Jurkat, FIG. 5
# Protocol: (§1) WEHI7.2 cells were cultured in DMEM supplemented with 10% fetal calf serum, L-glutamine (2 mM), and nonessential amino acids (100 μM). Transfections of WEHI7.2 cells with expression vectors encoding wild type Bcl-2 and Bcl-2RS/GG were described previously. Jurkat cells and RS11846 cells were cultured in RPMI medium supplemented with 10% fetal bovine serum, L-glutamine (2 mM), and nonessential amino acids (100 μM). Cells were maintained in 5% carbon dioxide at high humidity.
# (§2) Methods of Ca^2+ imaging, described in detail previously, were employed here with only minor modification. Briefly, cells adhered to poly-L-lysine-coated coverslips (35-mm coverslip dishes, MatTek Corp., Ashland, Mass.) were loaded with 1 μM Fura-2 AM for 45 min at 25° C. in extracellular buffer (ECB) (130 mM NaCl, 5 mM KCl, 1.5 mM CaCl2, 1 mM MgCl2, 25 mM Hepes, pH 7.5, 1 mg/ml BSA, and 5 mM glucose). The buffer was replaced with fresh ECB and the incubation continued for […] at 25° C. to permit de-esterification. Culture dishes were mounted on the non-heated stage of an inverted microscope (Olympus CKX41) equipped with a 20× Fluor objective. Excitation light was alternated between 340 and 380 nm by a filter wheel (Sutter Instrument Co.), with 0.8 sec and 0.2 sec exposure times respectively, and emitted light was filtered at >510 nm and collected with an intensified charge-coupled device camera (Cooke 12 bit VGA). The video signal was digitized using InCyt Im2 software (Intracellular Imaging) and subsequently processed using Microsoft Excel. To determine Rmin cells were perfused with ECB deficient in Ca^2+ and supplemented with 4 mM EGTA and 10 μM ionomycin. Rmax was obtained by perfusing cells with ECB supplemented with 4 mM CaCl2 and 10 μM ionomycin. […] In most experiments peptides were fused with the cell penetrating peptide of HIV TAT to facilitate uptake by cells. In some experiments peptides, without linkage to TAT, were delivered into cells using Chariot reagent (Active Motif) as previously described. Xestospongin C (Enzo Life Sciences International) and U73122 (Sigma), both dissolved in DMSO, were added to cells 30 mM prior to Ca^2+ measurements.
# RS11846 cells = assay: as above; format: cell-based, human; settings: RS11846, FIG. 6
# Protocol: as §1, §2
# [1] = tested on: triple IP3R knockout DT40 cells; assay: as above; format: cell-based; settings: 5 μM peptide, TKO DT40, FIG. 8C
# Protocol: as §2, with “In some experiments peptides, without linkage to TAT, were delivered into cells using Chariot reagent (Active Motif) as previously described. Xestospongin C (Enzo Life Sciences International) and U73122 (Sigma), both dissolved in DMSO, were added to cells 30 mM prior to Ca^2+ measurements.” left out
# wild type DT40 cells = assay: as above; format: cell-based; settings: 5 μM peptide, DT40 expressing all three IP3R isoforms, FIG. 8B
# Protocol: as §2, with “In some experiments peptides, without linkage to TAT, were delivered into cells using Chariot reagent (Active Motif) as previously described. Xestospongin C (Enzo Life Sciences International) and U73122 (Sigma), both dissolved in DMSO, were added to cells 30 mM prior to Ca^2+ measurements.” left out
# primary CLL cells [2] = assay: as above; format: cell-based, human; settings: 10 μM peptide
# Description: (§3) Lymphocytes were freshly separated from heparinized peripheral blood obtained from normal adult volunteers or adult patients with chronic lymphocytic leukemia (CLL) meeting standard diagnostic guidelines. Patients had either never received treatment or had received treatment over two years prior to obtaining samples. We conformed to all guidelines and regulations in accordance with Internal Review Board protocols ICC2902/11-02-28 (Case Western Reserve University Cancer Center/University Hospitals of Cleveland Ireland Cancer Center). Cells were separated by centrifugation through Ficoll-Hypaque and suspended in RPMI medium supplemented with 10% fetal bovine serum, L-glutamine (2 mM), and nonessential amino acids (100 μM) at a density of 2 million cells/ml. Normal CD19+ B cells were pooled from healthy individuals between 26 and 32 years of age, in accordance with IRB-approval (as above). Mononuclear cells were separated by Ficoll-Hypaque centrifugation, and further isolation of B and T cells was achieved by magnetic separation using CD19 microbeads (Miltenyi Biotec, Bergisch Gladbach, Germany).
# as §2
# primary CLL cells [3] = assay: Apoptosis and cell death assays (trypan blue, propidium iodide, Hoechst nuclear morphology, Annexin V); format: cell-based, human; settings: 24 hr
# Description: as §3, with “Patients had either never received treatment or had received treatment over two years prior to obtaining samples.” left out
# Apoptosis was quantified according to apoptotic nuclear morphology and by detection of phosphatidylserine exposure on the plasma membrane. […] Images were obtained using a chargecoupled device camera (Hamamatsu Photonics, Shizuoka, Japan) and digitally converted by Simple PCI software (Hamamatsu Photonics). Membrane translocation of phosphatidylserine was detected by Annexin V staining. Annexin V-positive cells were assessed by flow cytometry using an ARIA flow cytometer (Beckman Coulter, Pasadena, Calif., USA). All flow cytometry data were analyzed using FlowJo 8.8.4 for Macintosh (Treestar, Ashland, Oreg., USA). Dead cells were identified according to their inability to exclude trypan blue dye or propidium iodide. Trypan blue dye uptake into cells was detected by light microscopy using a 40× objective and quantified by counting up to 400 cells. Propidium iodide uptake was quantified by flow cytometry in association with the Annexin V measurement described above.
# multiple myeloma cells = assay: Killing of multiple myeloma cells; format: cell-based; settings: FIG. 17
substance,measurement,setting,value
TAT-IDPDD/AA: TAT-IDP analogue; DD/AA substitution eliminates the predicted aspartyl protease cleavage site (RKKRRQRRRGGNVYTEIKCNSLLPLAAIVRV),amplitude and frequency of Ca2+ oscillations compared with TAT-IDP,Jurkat cells,much higher
same,activity (Ca2+ oscillations) compared to TAT-IDP,RS11846 cells,increased activity
same,induction of Ca2+ oscillations compared with wild type DT40,[1],significantly less
same,induction of Ca2+ oscillations,wild type DT40 cells,induced Ca^2+ oscillations
same,CLL cells with one or two high amplitude spikes associated with prolonged basal Ca2+ elevation,primary CLL cells [2]; 90 min,28±5%
same,CLL cells with prolonged Ca2+ oscillations without baseline Ca2+ elevation,primary CLL cells [2]; 90 min,6±2%
same,CLL cells with relatively brief burst of Ca2+ oscillations associated with prolonged basal Ca2+ elevation,primary CLL cells [2]; 90 min,17±4%
same,amplitude of Ca2+ peaks compared to TAT-IDP,primary CLL cells [2]; FIG. 10,significantly higher
same,CLL cells with Ca2+ elevation,"primary CLL cells [2]; recordings typically 90 min, FIG. 9",51 ±5%
same,apoptosis induction in CLL cells,"primary CLL cells [3]; 10 μM peptide, Figs. 12-15",substantial apoptosis
same,sensitivity of CLL cells to apoptosis induction relative to normal peripheral blood lymphocytes,"primary CLL cells [3]; propidium iodide exclusion by flow cytometry, FIG. 16",over 6 fold
same,killing of multiple myeloma cells,multiple myeloma cells,kills multiple myeloma cells
